From patent US20030050470A1, “Biomarkers and targets for diagnosis, prognosis and management of prostate disease, bladder and breast cancer” (UroCor, Inc., priority 1996, published 2003)
Like-named read-outs stand apart in the source and are kept apart here.

How the values were obtained:
[1] = tested on: PSMA messenger RNA in LNCAP prostate cancer cell line; settings: LNCAP cells after exposure (Israeli et al., 1994); cited from earlier work
[2] = tested on: UC 28 gene message in LnCaP cells; settings: charcoal stripped serum 48 hours, DHT 0, 0.1, 1, 10 and 100 nM for 24 hours, normalized to β-actin
Method: FIG. 17. […] LnCaP cells were cultured in RPMI-1640 with 10% charcoal stripped serum for 48 hours prior to treatment. The cells were incubated in DHT for 24 hours. […] RT-PCR message was normalized to β-actin.
Since hormones regulate both prostate and mammary glands, the possibility that expression of this gene is modified by androgen was examined.

B 16 melanoma cell line = B 16 melanoma cell line (Rieber & Rieber, 1994); cited from earlier work
[3] = tested on: cyclin A in DU-145 prostate carcinoma cell line; settings: DU-145 cells (Qiao et al., 1994); cited from earlier work

C[C@]12CCC(=O)C[C@@H]1CC[C@@H]1[C@@H]2CC[C@]2(C)[C@@H](O)CC[C@@H]12 [DHT, dihydrotestosterone]
PSMA mRNA down-regulation [1]: 8-10 fold
UC 28 gene expression (UC 28 message level by RT-PCR) [2]: increasing UC 28 message level
UC 28 gene expression (UC 28 message level by RT-PCR) ([2]; listed as dihydrotestosterone): stimulated by dihydrotestosterone (DHT) in a time and dosage-dependent manner

N[C@@H](Cc1ccc(O)cc1)C(=O)O [L-tyrosine]
cyclin A activity (B 16 melanoma cell line): decrease in cyclin A activity
melanogenesis and replicative senescence (B 16 melanoma cell line): promote increased melanogenesis and replicative senescence

Cc1ccc(C(=O)Nc2ccc(S(=O)(=O)O)c3cc(S(=O)(=O)O)cc(S(=O)(=O)O)c23)cc1NC(=O)c1cccc(NC(=O)Nc2cccc(C(=O)Nc3cc(C(=O)Nc4ccc(S(=O)(=O)O)c5cc(S(=O)(=O)O)cc(S(=O)(=O)O)c45)ccc3C)c2)c1 [Suramin]
expression of cyclin A [3]: reduces the expression of cyclin A
